# Test results: US11572369B2, “Bicyclic pyridine compositions and methods of using the same for cancer therapy” (UNIVERSITY OF SOUTH CAROLINA, priority 2019, dated 2023)
# Where two headings read alike, the source gives them in different places.
# Columns and labels:
# MV4-11 cells = experiment: MV4-11-Luc proliferation assay; conditions: Homo sapiens, MV4-11, read-out: Inhibition Potency MV4-11-Luc Assay
# CDK8/19 = experiment: NFκB Activity Assay (NFκB luciferase reporter, parental 293 cells); assay type: cell-based
# Mouse PK, intravenous = assay type: in vivo; conditions: female FVB mice, i.v. 0.5 mg/kg, mixture; for AUC / C0 / Vd / half-life: mouse, serum, iv
# Method: Pharmacokinetics (PK) Assay. To measure mouse pharmacokinetics (PK), thienopyridine derivatives were dissolved in 5% dextrose and administered to female FVB mice at different dosing conditions; blood samples were collected at different time points and compound concentrations in the serum were measured by LC/MS/MS.
# Mouse PK, oral 1 mg/kg = assay type: in vivo; conditions: female, FVB, serum, mice, oral (gavage) 1 mg/kg; for bioavailability: read-out: Bioavailability (F %)
# [1] = system: PSA expression in CRPC cell line C4-2; experiment: PSA expression in C4-2 cell culture supernatant; assay type: cell-based; conditions: C4-2 culture supernatant, 4-day treatment, FBS-supplemented regular media, read-out: IC50, suppression of PSA expression
# From the text: CDK8/19 inhibition decreases the expression of certain androgen-receptor (AR) inducible genes including PSA, the most common marker of prostate cancer, and the growth of castration-refractory prostate cancers (CRPC).
# [2] = system: 4T1 murine triple-negative breast cancer; experiment: 4T1 TNBC lung metastasis survival after primary tumor removal; assay type: in vivo, mouse; conditions: medicated food (350 ppm) plus one oral dose 50 mg/kg after removal of primary tumor
# MYC-CAP-CR cells [3] = experiment: Short-term cell proliferation assay, MYC-CAP-CR; assay type: cell-based, murine; conditions: androgen-containing media
# in vivo = conditions: female, CD-1, mouse, serum, po
# [4] = Saito, 2013; cited from earlier work
# [5] = system: NFκB activation in CDK8/19-deficient cells; experiment: NFκB reporter assay in CDK8/19 double-knockout 293 reporter cells; conditions: CDK8/19 double-knockout reporter cells
# [6] = system: alkaline phosphatase (ALPase) in bone marrow stromal cell line ST2; conditions: cited from earlier work; for ALP activity Assay EC200: concentration that enhances ALPase activity to 200% of control, ST2 cells, Saito (2013)
# [7] = Oral PK in female CD-1 mice, solution formulation; conditions: oral gavage in solution, 30 mg/kg (15u series) or 16/18 mg/kg (15w series)
# MYC-CAP-CR cells [8] = experiment: Long-term clonogenic assay, MYC-CaP-CR; assay type: cell-based, murine
# MYC-CaP-CR tumors = experiment: MYC-CaP-CR subcutaneous tumors in intact FVB male mice; assay type: in vivo, mouse; conditions: intact (uncastrated) FVB male mice
# [9] = read-out: Inhibition Potency HEK293-NFkB-Luc Assay, read-out: Inhibition Potency HEK238-NFkB-Luc Assay
# [10] = parental 293-derived reporter cell line, read-out: NFκB activity Assay IC50
compound,measurement,setting,value
CN(C)C(=O)c1ccc(CN2CCCN(c3ccnc4sc(C(N)=O)c(N)c34)CC2)cc1 [compound 6269],IC50,MV4-11 cells,683 nM
same,IC50,CDK8/19; [9],1000 nM
CNC(=O)c1ccc(N2CCCN(c3ccnc4sc(C(N)=O)c(N)c34)CC2)cc1 [15v],Elimination rate,"Mouse PK, intravenous",4.33 h⁻¹
same,AUC,"Mouse PK, intravenous",61.2 ng·h/mL
same,C0,"Mouse PK, intravenous",234 ng/mL
same,Vd,"Mouse PK, intravenous",2.14 L/kg
same,half-life,"Mouse PK, intravenous",9.6 min
same,AUC,"Mouse PK, oral 1 mg/kg",21.8 ng·h/mL
same,Cmax,"Mouse PK, oral 1 mg/kg",7.2 ng/mL
same,half-life,"Mouse PK, oral 1 mg/kg",72 min
same,bioavailability,"Mouse PK, oral 1 mg/kg",18%
same,IC50,CDK8/19; [9],23.1 nM
CN(C)C(=O)c1ccc(N2CCCN(c3ccnc4sc(C(N)=O)cc34)CC2)cc1 [compound 6296],IC50,CDK8/19; [9],> 1000 nM
"CN1CCN(C(=O)c2ccc3cc(CCNc4ncnc5ccc(C#N)cc45)ccc3c2)CC1 [Senexin B, reference compound]",IC50,[1],255 nM
same,mouse survival of the metastatic disease,[2],statistically significant but moderate increase in survival
same,MYC-CAP-CR cell growth,MYC-CAP-CR cells [3],little effect
CN(C)C(=O)c1ccc(N2CCCN(c3ccnc4sc(C#N)c(N)c34)CC2)cc1 [compound 6298],IC50,CDK8/19; [9],379 nM
CN(C)C(=O)c1ccc(N2CCCN(c3ccnc4oc(C(N)=O)c(N)c34)CC2)cc1 [compound 6318],IC50,CDK8/19; [9],> 1000 nM
CN(CCCNC(=O)OC(C)(C)C)C(=O)c1ccc(N2CCCN(c3ccnc4sc(C(N)=O)c(N)c34)CC2)cc1 [compound 6292],IC50,CDK8/19; [9],594 nM
NC(=O)c1sc2nccc(N3CCCN(c4ccc(C(=O)NCCCO)cc4)CC3)c2c1N [compound 6263],IC50,MV4-11 cells,83 nM
same,IC50,CDK8/19; [9],169 nM
CN1CCN(C(=O)c2ccc(N3CCCN(c4ccnc5sc(C(N)=O)c(N)c45)CC3)cc2)CC1 [compound 6268],IC50,MV4-11 cells,42 nM
same,IC50,CDK8/19; [9],31 nM
"CN(CCCO)C(=O)c1ccc(N2CCCN(c3ccnc4sc(C(N)=O)c(N)c34)CC2)cc1 [compound 6264, 3-amino-4-(4-(4-((3-hydroxypropyl)(methyl)carbamoyl)phenyl)-1,4-diazepan-1-yl)thieno[2,3-b]pyridine-2-carboxamide]",IC50,MV4-11 cells,31 nM
same,AUC(0-t),in vivo; 25 mg/kg,470 ng·h/mL
same,IC50,CDK8/19; [9],37 nM
"CN(C)C(=O)Cc1ccc(N2CCCN(c3ccnc4sc(C(N)=O)c(N)c34)CC2)cc1 [15w, 3-amino-4-(4-(4-(2-(dimethylamino)-2-oxoethyl)phenyl)-1,4-diazepan-1-yl)thieno[2,3-b]pyridine-2-carboxamide]",IC50,[1]; 96 h,15.7 nM
same,AUC(0-t),in vivo; 16 mg/kg,400 ng·h/mL
same,pharmacokinetics,[4],poor pharmacokinetics (PK) with low Cmax
same,AUC,"Mouse PK, oral 1 mg/kg",29.2 ng·h/mL
same,half-life,"Mouse PK, oral 1 mg/kg",18 min
same,effect on NFκB activation in CDK8/19-deficient cells,[5],no effect
same,IC50,CDK8/19; [9],4.1 nM
same,bone anabolic activity in a cell-based assay,"[6]; Saito, 2013",highest bone anabolic activity
same,ALP activity Assay EC200,[6],6.6 nM
CN(CCCN)C(=O)c1ccc(N2CCCN(c3ccnc4sc(C(N)=O)c(N)c34)CC2)cc1 [compound 6293],IC50,CDK8/19; [9],50 nM
"[2H]C([2H])(C(=O)N(C)C)c1ccc(N2CCCN(c3ccnc4sc(C(N)=O)c(N)c34)CC2)cc1 [15w_D2, 3-amino-4-(4-(4-(2-(dimethylamino)-2-oxoethyl-1,1-d2)phenyl)-1,4-diazepan-1-yl)thieno[2,3-b]pyridine-2-carboxamide]",AUC(0-t),in vivo; 18 mg/kg,380 ng·h/mL
same,PK (AUC 0-8 h) versus undeuterated parent,[7],did not improve the PK
same,IC50,CDK8/19; [9],8.8 nM
CN(C)C(=O)c1ccc(N2CCCN(c3ccnc4[nH]c(C(N)=O)c(N)c34)CC2)cc1 [compound 6307],IC50,CDK8/19; [9],> 1000 nM
COc1ccc(N2CCCN(c3ccnc4sc(C(N)=O)c(N)c34)CC2)cc1 [15q],IC50,CDK8/19; [10],43.1 nM
same,ALP activity Assay EC200,[6],115.4 nM
"[2H]C([2H])([2H])N(C(=O)Cc1ccc(N2CCCN(c3ccnc4sc(C(N)=O)c(N)c34)CC2)cc1)C([2H])([2H])[2H] [15w_D6, 3-amino-4-(4-(4-(2-(bis(methyl-d3)amino)-2-oxoethyl)phenyl)-1,4-diazepan-1-yl)thieno[2,3-b]pyridine-2-carboxamide]",AUC(0-t),in vivo; 16 mg/kg,770 ng·h/mL
same,PK (AUC 0-8 h) versus undeuterated parent,[7],much improved the PK
same,IC50,CDK8/19; [9],3.8 nM
"CN1CCN(Cc2ccc(N3CCCN(c4ccnc5sc(C(N)=O)c(N)c45)CC3)cc2)CC1 [compound 6300, 3-amino-4-(4-(4-((4-methylpiperazin-1-yl)methyl)phenyl)-1,4-diazepan-1-yl)thieno[2,3-b]pyridine-2-carboxamide]",AUC(0-t),in vivo; 30 mg/kg,210 ng·h/mL
same,IC50,CDK8/19; [9],4.9 nM
NC(=O)c1sc2nccc(N3CCCN(c4ccc(C(=O)N5CCNCC5)cc4)CC3)c2c1N [compound 6271],IC50,MV4-11 cells,79 nM
same,IC50,CDK8/19; [9],233 nM
NC(=O)c1sc2nccc(N3CCCN(c4ccccc4)CC3)c2c1N [15k],Elimination rate,"Mouse PK, intravenous",4.59 h⁻¹
same,AUC,"Mouse PK, intravenous",40.8 ng·h/mL
same,C0,"Mouse PK, intravenous",168 ng/mL
same,Vd,"Mouse PK, intravenous",2.98 L/kg
same,half-life,"Mouse PK, intravenous",9 min
same,AUC,"Mouse PK, oral 1 mg/kg",7.6 ng·h/mL
same,half-life,"Mouse PK, oral 1 mg/kg",18 min
same,bioavailability,"Mouse PK, oral 1 mg/kg",9%
"Cc1cc(N2CCCN(c3ccc(C(=O)N(C)C)cc3)CC2)c2c(N)c(C(N)=O)sc2n1 [compound 6304, 3-amino-4-(4-(4-(dimethylcarbamoyl)phenyl)-1,4-diazepan-1-yl)-6-methylthieno[2,3-b]pyridine-2-carboxamide]",AUC(0-t),in vivo; 16 mg/kg,2200 ng·h/mL
same,IC50,CDK8/19; [9],13.6 nM
Cc1ccc(N2CCCN(c3ccnc4sc(C(N)=O)c(N)c34)CC2)cc1 [15n],IC50,CDK8/19; [10],37.8 nM
same,ALP activity Assay EC200,[6],88.1 nM
CNC(=O)c1ccc(N2C(=S)N(c3ccc(C#N)c(C(F)(F)F)c3)C(=O)C2(C)C)cc1F [enzalutamide],MYC-CaP-CR colony formation,MYC-CAP-CR cells [8],decreased MYC-CaP-CR colony formation
same,MYC-CAP-CR cell growth,MYC-CAP-CR cells [3],paradoxically stimulated the growth
same,tumor volume and weight,MYC-CaP-CR tumors,modest effect
CN(C)C(=O)c1ccc(N2CCCN(c3ccnc4[nH]c(C(N)=O)cc34)CC2)cc1 [compound 6284],IC50,CDK8/19; [9],> 1000 nM
